Series [1] relates to MRSA NRS 186. Description: Broth microdilution MIC, MRSA NRS 186. The series is classed as cell-based, S. aureus. Particulars: MRSA NRS 186. The procedure: (§1) The data is given in supporting information (Table S5). Before starting the experiment, a single colony was picked from MHA plate, inoculated in MHBII and incubated overnight at 37 °C with shaking for 18–24 h to get the starter culture. Antibiotic susceptibility testing was conducted according to the CLSI (Clinical & Laboratory Standards Institute) guidelines using the broth microdilution assay. 10 mg/mL stock solutions of test compounds were prepared in DMSO. Bacterial cultures were inoculated in MHBII and optical density (OD) was measured at 600 nm, followed by dilution to achieve ~10^6 CFU/mL. The compounds were tested from 64 to 0.5 mg/L in two-fold serial diluted fashion with 2.5 μL of each concentration added to well of a 96-well round bottom microtiter plate. Later, 97.5 μL of bacterial suspension was added to each well containing either test compound or appropriate controls. […] The MIC is defined as the lowest concentration of the compound at which there is absence of visible growth. For each test compound, MIC determinations were carried out independently three times using duplicate samples.
In general terms: Broth dilution looks for growth in wells or tubes with falling amounts of substance.

On the set-up of series [2]: method as in PMID 34018686. The settings on record: cited from earlier work.
Series [3] concerns Bacillus subtilis MW168. Put plainly: MIC assay, B. subtilis MW168. Particulars: B. subtilis MW168. The series is classed as cell-based.
For series [4], the system named is MRSA NRS 191. Description: Broth microdilution MIC, MRSA NRS 191. The series is classed as cell-based, S. aureus. Particulars: MRSA NRS 191. The procedure:
as §1

Series [5] deals with VRSA VRS 4. Put plainly: Broth microdilution MIC, VRSA VRS 4. The series is classed as cell-based, S. aureus. Particulars: VRSA VRS 4. How it is done:
as §1

Series [6] relates to 36th Passage S.aureus ATCC 29213 in the presence of Pt-1. Description: microbe, parasite or virus in culture. The series is classed as cell-based. The settings on record: strain resulting from 36 passages. How it is done: The MICs of the passaged cultures were determined every 3 days and compared to that of wild type S. aureus ATCC 29213. MIC changes were recorded for 36 passages.

Series [7] deals with MRSA NRS 193. Description: Broth microdilution MIC, MRSA NRS 193. The series is classed as cell-based, S. aureus. The settings on record: MRSA NRS 193. How it is done: as §1
Series [8] is described as follows: Stability by 1H and 195Pt NMR. The series is classed as physicochemical. The procedure:
Measurements were repeated after the 24 h and 48 h of incubations at 37 °C.
Then, 10% D2O was added and 1H NMR was recorded immediately and after 24 h of incubation at 37 °C.

Series [9] concerns Galleria mellonella infection model. Also noted: method as in PMID 34018686. Particulars: systematic infection model; cited from earlier work.
The subject of series [10] is methicillin-resistant S. aureus (MRSA) COL. Put plainly: MIC assay, MRSA COL. The series is classed as cell-based, Staphylococcus aureus. The settings on record: MRSA COL.
Series [11] has as its system MreB (B. subtilis MW10, Pxyl-gfp-mreB). Description: MreB mobility (cell wall synthesis reporter). Particulars: 3.12 µM Pt1, 25 µM Pt8; 30 and 60 min. The series is classed as cell-based, Bacillus subtilis. How it is done: B. subtilis strains were grown in LB containing appropriate inducer concentrations as specified in Table S10. After reaching an OD600 of 0.3, cultures were split and treated with antibiotics. Samples were withdrawn after 30 and 60 min of treatment, spotted on glass slides covered with 1% agarose films, and immediately imaged.
Figure S7: Fluorescence overlays of B. subtilis MW10 (Pxyl-gfp-mreB). Cultures were treated […]
overlays of two consecutive images captured from the same cells in a 30-second interval.
Images were false-colored in blue and orange with overlapping signal appearing white. Distinct blue and orange spots indicate movement of MreB foci. Entirely white images indicate a stop of MreB moility (vancomycin control). Scale bar 2 µm.
(§2) (1 picture or pasted object on this page, not shown here)

For series [12], the system named is E. coli (NCTC 13476). Put plainly: MIC, E. coli NCTC 13476 (with or without PMBN). The series is classed as cell-based. Particulars: E. coli NCTC 13476 + 10 µg/mL PMBN (polymyxin B nonapeptide).
Series [13] relates to K. pneumoniae BAA 1705. Put plainly: Broth microdilution MIC, K. pneumoniae BAA 1705. The series is classed as cell-based, Klebsiella pneumoniae. How it is done: as §1
Series [14] deals with MRSA NRS 119. Description: Broth microdilution MIC, MRSA NRS 119. The series is classed as cell-based, S. aureus. The settings on record: MRSA NRS 119. How it is done: as §1
For series [15], the system named is GFP-MinD expression (B. subtilis TB35). Put plainly: Translation inhibition assay (inducible GFP-MinD expression). The series is classed as cell-based, Bacillus subtilis. The settings on record: 3.125 µM Pt1, 25 µM Pt8; 60 min. The procedure:
B. subtilis strain TB35 (Pxyl-minD-gfp) was grown in LB without inducer. After reaching an OD600 of 0.3, antibiotics and inducer (0.1% xylose) were added consecutively. Samples were withdrawn for microscopy after 60 min of treatment, spotted on glass slides covered with 1% agarose films, and imaged without delay.
Figure S11: MinD translation induction assay. TB35 (Pxyl-minD-gfp) was grown without xylose, thus not expressing GFP -MinD. […]
chloramphenicol (CHL). Images were taken after 60 min of induction/treatment. Scale bar 2 […]
as §2

The subject of series [16] is HEK293T cells. The series is classed as cell-based, Human. How it is done:
The control for the experiments was DMSO. HEK293T cells were cultivated in DMEM high glucose supplemented with 10% heat-inactivated fetal bovine serum, 100 U/mL of penicillin and streptomycin and maintained at a temperature of 37 °C with 5% CO2. Initially, 4000/well of cells were seeded into 96-well plates and incubated for 24 h before being exposed to compounds at concentrations ranging from 0.78, 50, and 100 µM. After 24 h of incubation, the compounds were added and serially diluted and incubated for 24 and 48 h at 37 °C 5% CO2, the cells were stained with alamar Blue, and the fluorescence excitation/ emission 540 nm/590 nm was measured using 96 well-plate reader. CC50 is defined as the lowest concentration of compound which leads to a 50% reduction in cell viability compared to untreated and DMSO control. Each experiment was repeated in triplicate.

In series [17] the test system is E. coli lpxC. The settings on record: lipid A biosynthesis-impaired mutant; cited from earlier work.
Series [18] relates to MRSA NRS 198. Put plainly: Broth microdilution MIC, MRSA NRS 198. The series is classed as cell-based, S. aureus. Particulars: MRSA NRS 198. How it is done:
as §1

The test system of series [19] is Vero cells. Description: Cytotoxicity against Vero cells (MTT assay). The series is classed as cell-based, African Green Monkey. The settings on record: 72 h. The procedure: Cell toxicity was performed against Vero cells using the MTT assay. ~10^3 cells/well were seeded in 96 well plate and incubated at 37 °C with 5% CO2 atmosphere. […] After the incubation was over, MTT was added in each well, incubated at 37 °C for further 4 h, residual medium was discarded, 0.1 mL of DMSO was added to solubilize the formazan crystals and OD540 was taken for the calculation of IC50. Doxorubicin was used as positive control and each experiment was repeated in triplicate.
Background: Tetrazolium assays rely on reduction of a dye to a coloured formazan, in cell work by metabolically active cells.

Several values for one entry are separate records, joined by “and”; a condition that tells them apart may be missing. Identical values can stand only once. Like-named read-outs stand apart in the source and are kept apart here. Bounds are passed on as bounds.

By MIC is commonly meant the lowest concentration found to suppress growth. The IC50 is the concentration that inhibits the measured activity by half. A high value points to weaker potency.

Turning to `C1=C\CC/C=C\CC/1.[Cl][Pt][Cl]` [Pt1], the MIC is 0.125 – 0.25 µg/mL and 0.33–0.67 µM in [1]; 6.25 µM in series [3]; 0.25 µg/mL and 0.67 µM in series [4]; 0.67 to 1.34 µM in series [5]; 0.25 µg/mL and 0.67 µM in [7]; 3.125 µM in series [10]. Moreover, the MIC in series [12] was greater than 100 µM; in series [13], greater than 64 µg/mL; in series [14] it was 0.125 – 0.25 µg/mL and 0.33–0.67 µM; in series [18], 0.25 µg/mL and 0.67 µM. Besides, the “antibacterial activity in human serum” value in series [2] is “lost its antibacterial activity completely”. In addition, the “cross-resistance to other antibiotics” value in [6] was “no cross-resistance was observed”. Besides, the “time compound remains intact in aqueous environment (1H-NMR)” value in [8] (DMSO-d6 with 10% D2O, 37 °C) was “at least 24 h”. Further, in series [8] (approximately 7 mM in DMSO-d6, 37 °C, 1H and 195Pt NMR), the “time compound remains intact (NMR)” value is on record as “at least 48 h”. Also, the in vivo activity entry in series [9] was “no in vivo activity was observed”. In series [11], the MreB mobility entry is on record as “neither Pt1 nor Pt8 affected MreB mobility”. Besides, the “GFP-MinD expression after xylose induction” value in series [15] is “No differences in GFP-MinD expression were observed”. The figures for the IC50 in series [16] (24 h), in [16] (48 h) and in [19] were 74.1 ± 4.1 µM, 65.3 ± 2.7 µM and greater than 134 µM, respectively. In addition, the antibacterial activity entry in [17] was “inactive”.

These data come from PMC13183915, “A platinum butterfly effect: small changes turn an anticancer drug into a non-toxic metalloantibiotic with in vivo efficacy” (npj Antimicrobials and Resistance, 2026).
